Results published in ChEMBL document CHEMBL1201862, “PubChem BioAssay data set” (2004).
Where “and” joins values, the source holds several entries; their conditions need not be identical. Identical values can stand only once.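 Briefly, cells in 96-well plates were exposed to five compound concentrations for 48 h, and endpoints were estimated by linear interpolation. GI50 is the concentration that inhibits growth by half.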 Calls of active or inactive are those of the source. No stated cut-off is given here; in the data, active = GI50 up to about 1.1 µM and inactive = higher.

Legend:
Assay in all cases: growth of human tumour cells (NCI), 48 h
SNB-19 = system: SNB-19
U-251 = system: U-251
CAKI-1 = system: CAKI-1
SN12C = system: SN12C
SK-MEL-2 = system: SK-MEL-2
RXF 393 = system: RXF 393
UACC-257 = system: UACC-257
COLO 205 = system: COLO 205
K562 = system: K562
MDA-N = system: MDA-N
SR = system: SR
MOLT-4 = system: MOLT-4
SK-MEL-28 = system: SK-MEL-28
SF-268 = system: SF-268
LOX IMVI = system: LOX IMVI
Hs-578T = system: Hs-578T
CCRF-CEM = system: CCRF-CEM
A498 = system: A498
SNB-75 = system: SNB-75
HCC 2998 = system: HCC 2998
HL-60 = system: HL-60
786-0 = system: 786-0
NCI/ADR-RES = system: NCI/ADR-RES
PC-3 = system: PC-3
SF-539 = system: SF-539
NCI-H23 = system: NCI-H23
HCT-15 = system: HCT-15
HCT-116 = system: HCT-116
UO-31 = system: UO-31
RPMI-8226 = system: RPMI-8226
HT-29 = system: HT-29
ACHN = system: ACHN
OVCAR-5 = system: OVCAR-5
SK-OV-3 = system: SK-OV-3
IGROV-1 = system: IGROV-1
UACC-62 = system: UACC-62
T47D = system: T47D
SK-MEL-5 = system: SK-MEL-5
EKVX = system: EKVX
A549 = system: A549
SW-620 = system: SW-620
MDA-MB-435 = system: MDA-MB-435
MCF7 = system: MCF7
TK-10 = system: TK-10
SF-295 = system: SF-295
DU-145 = system: DU-145
OVCAR-8 = system: OVCAR-8
Malme-3M = system: Malme-3M
M14 = system: M14
NCI-H460 = system: NCI-H460
MDA-MB-231 = system: MDA-MB-231
OVCAR-4 = system: OVCAR-4
HOP-62 = system: HOP-62
KM12 = system: KM12
NCI-H226 = system: NCI-H226
OVCAR-3 = system: OVCAR-3
NCI-H522 = system: NCI-H522

## Cc1cc(NCCCCCCNc2cc(C)nc3ccc(N)cc23)c2cc(N)ccc2n1
SNB-19
  GI50: 37 µM (inactive)
U-251
  GI50: 42.3 µM (inactive)

## Cc1cc(-c2nc3ccc(O)cc3s2)ccc1N
CAKI-1
  GI50: 34.8 µM (inactive)

## CCOC(=O)C(Cl)(NC(=O)NC(Cl)(C(=O)OCC)C(F)(F)F)C(F)(F)F (stereo not given)
SN12C
  GI50: > 100 µM (inactive)
SK-MEL-2
  GI50: > 100 µM (inactive)
RXF 393
  GI50: > 100 µM (inactive)
UACC-257
  GI50: > 100 µM (inactive)
COLO 205
  GI50: > 100 µM (inactive)
SNB-19
  GI50: > 100 µM (inactive)
K562
  GI50: > 100 µM (inactive)
MDA-N
  GI50: > 100 µM (inactive)
SR
  GI50: > 100 µM (inactive)
MOLT-4
  GI50: > 100 µM (inactive)
SK-MEL-28
  GI50: > 100 µM (inactive)
SF-268
  GI50: > 100 µM (inactive)
LOX IMVI
  GI50: > 100 µM (inactive)
Hs-578T
  GI50: > 100 µM (inactive)
CCRF-CEM
  GI50: > 100 µM (inactive)
U-251
  GI50: > 100 µM (inactive)
A498
  GI50: > 100 µM (inactive)
SNB-75
  GI50: > 100 µM (inactive)
HCC 2998
  GI50: > 100 µM (inactive)
HL-60
  GI50: > 100 µM (inactive)
786-0
  GI50: > 100 µM (inactive)
NCI/ADR-RES
  GI50: > 100 µM (inactive)
PC-3
  GI50: > 100 µM (inactive)
SF-539
  GI50: > 100 µM (inactive)
NCI-H23
  GI50: > 100 µM (inactive)
HCT-15
  GI50: > 100 µM
HCT-116
  GI50: > 100 µM (inactive)
UO-31
  GI50: > 100 µM (inactive)
RPMI-8226
  GI50: > 100 µM (inactive)
HT-29
  GI50: > 100 µM (inactive)
ACHN
  GI50: > 100 µM (inactive)
OVCAR-5
  GI50: > 100 µM (inactive)
SK-OV-3
  GI50: > 100 µM (inactive)

## CC1(C)C2CC(=O)C1(C)C(OCc1ccccc1)C2Br (stereo not given)
IGROV-1
  GI50: 74.8 µM (inactive) and 43.8 µM (inactive)
K562
  GI50: 27.1 µM (inactive) and 23.2 µM (inactive)
SR
  GI50: 21.4 µM (inactive) and 25.1 µM (inactive)
MOLT-4
  GI50: 17.7 µM (inactive) and 17.3 µM (inactive)
SF-268
  GI50: 56.6 µM (inactive)
UACC-62
  GI50: 34.9 µM (inactive) and 58.3 µM (inactive)
CCRF-CEM
  GI50: 15.8 µM (inactive) and 20.5 µM (inactive)
T47D
  GI50: 46.2 µM (inactive) and 28.2 µM (inactive)
SK-MEL-5
  GI50: 14.6 µM (inactive) and 20.7 µM (inactive)
EKVX
  GI50: 50 µM (inactive) and 57.9 µM (inactive)
A549
  GI50: 37.8 µM (inactive) and 59.3 µM (inactive)
HL-60
  GI50: 22.5 µM (inactive) and 23.2 µM (inactive)
NCI/ADR-RES
  GI50: 20.7 µM (inactive) and 36.7 µM (inactive)
SW-620
  GI50: 19.3 µM (inactive) and 32.7 µM (inactive)
MDA-MB-435
  GI50: 29.9 µM (inactive) and 25.6 µM (inactive)
PC-3
  GI50: 18 µM (inactive) and 28.6 µM (inactive)
NCI-H23
  GI50: 40.7 µM (inactive) and 27.9 µM (inactive)
MCF7
  GI50: 36 µM (inactive) and 62.8 µM (inactive)
HCT-15
  GI50: 17.3 µM and 34 µM
HCT-116
  GI50: 19.3 µM (inactive) and 38.2 µM (inactive)
TK-10
  GI50: 53.6 µM (inactive)
HT-29
  GI50: 15.5 µM (inactive) and 22.6 µM (inactive)
SF-295
  GI50: 25.2 µM (inactive) and 50.4 µM (inactive)

## c1csc(-c2cc(-c3cccs3)c(-c3ccsc3)s2)c1
SN12C
  GI50: 56.8 µM (inactive)
SK-MEL-2
  GI50: > 100 µM (inactive)
DU-145
  GI50: > 100 µM (inactive)
OVCAR-8
  GI50: > 100 µM (inactive)
Malme-3M
  GI50: > 100 µM (inactive)
IGROV-1
  GI50: > 100 µM (inactive)
M14
  GI50: > 100 µM (inactive)
UACC-257
  GI50: 58.1 µM (inactive)
COLO 205
  GI50: 55.5 µM (inactive)
SNB-19
  GI50: > 100 µM (inactive)
K562
  GI50: > 100 µM (inactive)
MDA-N
  GI50: > 100 µM (inactive)
SR
  GI50: > 100 µM (inactive)
MOLT-4
  GI50: > 100 µM (inactive)
SK-MEL-28
  GI50: > 100 µM (inactive)
SF-268
  GI50: > 100 µM (inactive)
LOX IMVI
  GI50: > 100 µM (inactive)
UACC-62
  GI50: > 100 µM (inactive)
Hs-578T
  GI50: > 100 µM (inactive)
CCRF-CEM
  GI50: > 100 µM (inactive)
U-251
  GI50: > 100 µM (inactive)
A498
  GI50: > 100 µM (inactive)
SNB-75
  GI50: > 100 µM (inactive)
T47D
  GI50: 17.6 µM (inactive)
SK-MEL-5
  GI50: > 100 µM (inactive)
HCC 2998
  GI50: 34.2 µM (inactive)
EKVX
  GI50: > 100 µM (inactive)
A549
  GI50: > 100 µM (inactive)
HL-60
  GI50: > 100 µM (inactive)
786-0
  GI50: > 100 µM (inactive)
NCI/ADR-RES
  GI50: > 100 µM (inactive)
NCI-H460
  GI50: > 100 µM (inactive)
SW-620
  GI50: > 100 µM (inactive)
CAKI-1
  GI50: > 100 µM (inactive)
MDA-MB-435
  GI50: > 100 µM (inactive)
PC-3
  GI50: > 100 µM (inactive)
MDA-MB-231
  GI50: > 100 µM (inactive)
SF-539
  GI50: > 100 µM (inactive)
NCI-H23
  GI50: > 100 µM (inactive)
OVCAR-4
  GI50: > 100 µM (inactive)
MCF7
  GI50: 24.7 µM (inactive)
HCT-15
  GI50: 19.2 µM
HCT-116
  GI50: > 100 µM (inactive)
TK-10
  GI50: > 100 µM (inactive)
UO-31
  GI50: > 100 µM (inactive)
HOP-62
  GI50: > 100 µM (inactive)
RPMI-8226
  GI50: 96.2 µM (inactive)
HT-29
  GI50: > 100 µM (inactive)
KM12
  GI50: 55.5 µM (inactive)
NCI-H226
  GI50: > 100 µM (inactive)
ACHN
  GI50: > 100 µM (inactive)
SK-OV-3
  GI50: > 100 µM (inactive)
SF-295
  GI50: > 100 µM (inactive)

## COc1ccc(CN=C(N)N)c2ccccc12
SN12C
  GI50: 14.9 µM (inactive)
SK-MEL-2
  GI50: 35.1 µM (inactive)
DU-145
  GI50: 57.7 µM (inactive)
OVCAR-8
  GI50: 38.8 µM (inactive)
Malme-3M
  GI50: 17.1 µM (inactive)
RXF 393
  GI50: 33.7 µM (inactive)
M14
  GI50: 37.1 µM (inactive)
UACC-257
  GI50: 47 µM (inactive)
OVCAR-3
  GI50: 42.9 µM (inactive)
COLO 205
  GI50: 15.8 µM (inactive)
SNB-19
  GI50: 18.4 µM (inactive)
NCI-H522
  GI50: 34.3 µM (inactive)
MDA-N
  GI50: 38.5 µM (inactive)
MOLT-4
  GI50: 48.3 µM (inactive)
SK-MEL-28
  GI50: 22.3 µM (inactive)
SF-268
  GI50: 12.1 µM (inactive)
LOX IMVI
  GI50: 24.8 µM (inactive)
UACC-62
  GI50: 39.4 µM (inactive)
Hs-578T
  GI50: 24.1 µM (inactive)
CCRF-CEM
  GI50: 38.3 µM (inactive)
U-251
  GI50: 16.4 µM (inactive)
SNB-75
  GI50: 20.5 µM (inactive)
T47D
  GI50: 31.9 µM (inactive)
SK-MEL-5
  GI50: 20 µM (inactive)
EKVX
  GI50: 21.1 µM (inactive)
A549
  GI50: 43.1 µM (inactive)
HL-60
  GI50: 23.8 µM (inactive)
786-0
  GI50: 12.7 µM (inactive)
NCI/ADR-RES
  GI50: > 100 µM (inactive)
SW-620
  GI50: 41.2 µM (inactive)
CAKI-1
  GI50: 20.7 µM (inactive)
PC-3
  GI50: 17.7 µM (inactive)
SF-539
  GI50: 19.2 µM (inactive)
NCI-H23
  GI50: 24.3 µM (inactive)
MCF7
  GI50: 36.7 µM (inactive)
HCT-15
  GI50: > 100 µM
HCT-116
  GI50: 24.6 µM (inactive)
TK-10
  GI50: 22.2 µM (inactive)
UO-31
  GI50: 23.5 µM (inactive)
HOP-62
  GI50: 0.78 µM (active)
RPMI-8226
  GI50: 31.6 µM (inactive)
HT-29
  GI50: 15.8 µM (inactive)
KM12
  GI50: 25.5 µM (inactive)
NCI-H226
  GI50: 27.4 µM (inactive)
ACHN
  GI50: 35.6 µM (inactive)
OVCAR-5
  GI50: 22.8 µM (inactive)
SK-OV-3
  GI50: 34.8 µM (inactive)
SF-295
  GI50: 2.7 µM (inactive)
